Data on ten molecules can be found in patent publication US4282232A, “Nitroimidazole radiosensitizers for hypoxic tumor cells and compositions thereof” (priority 1979, dated 1981).

Like-named read-outs stand apart in the source and are kept apart here.

One data set relates to hypoxic tumor cells. The settings on record: cited from earlier work; for selectivity (tumor cells versus normal tissue cells): DNA incorporating drugs; for radiosensitizing activity (in words): in vitro and/or in vivo.
Data set [1] has as its system Chinese hamster cells line V-79-753 B. Briefly: Radiosensitization of hypoxic Chinese hamster cells (Cobalt-60 irradiation, enhancement ratio). The settings on record: 1395 rad Cobalt-60. Type of data set: cell-based. The method, then: (§1) Asynchronous monolayer cultures of Chinese hamster cells line V-79-753 B were employed in all the experiments. The monolayers were derived from exponentially-growing cultures. Methods of culturing and handling have been reported earlier by Cooke et al, Rad. Res. 65, 152 (1976). The plated cultures were rendered hypoxic in sealed dural containers capable of holding four petri dishes, by purging with nitrogen (oxygen-free grade) for one hour. Irradiation was carried out by using a Cobalt-60 source at a dose rate of approximately 310 rad/min according to the procedure described previously be Cooke et al, supra. A dose of 1395 rad was given to hypoxic cells in glass petri dishes in the presence of a given drug concentration (2000 cells/dish). Cell survival was estimated from unirradiated hypoxic cells exposed to the same drug concentration. Cultures were incubated for 6 days at 37° C. in an atmosphere of 5% CO2; the resulting colonies were fixed in absolute ethanol, stained with methylene blue and counted.

Data set [2] is described as follows: In vitro cytotoxicity (2 hour exposure). Type of data set: cell-based. The settings on record: chinese hamster, v-79-753 b cells; for MNTC at 2 h: read-out: In-vitro Cytotoxicity in cells: Nontoxic up to (concentration); for cytotoxicity at 2 h, 1000 µM: at 1mM. The method, then: as §1
To determine toxicity in vitro, glass petri dishes containing approximately 200 cells/dish were exposed to a range of concentrations of each drug for 2 hours at room temperature (20° C.) in air or in hypoxia. Drug concentrations […] were employed.

The test system of data set [3] is hypoxic cells (Chinese hamster cells line V-79-753 B). Briefly: Differential cytotoxicity of hypoxic cells. Type of data set: cell-based. On the procedure:
as §1
[…] Drug concentrations between 10 μM were employed.

A further data set is described as follows: in vivo. The settings on record: mouse, in vivo, ip. On the procedure:
(§2) Neurotoxicity in mice was determined using mice of strain BDF1. This was carried out by (1) determining the LD50 of each compound in mice and (2) observing the animals for acute neurotoxic symptoms such as convulsions. The drugs were either solubilized or suspended in normal saline and administered intraperitoneally to groups of 10 mice.

The test system of data set [4] is mice of strain BDF1. In words: in vivo. The settings on record: intraperitoneal, 24 hours observation. The method, then: as §2
The nature of the next data set: Redox potential. Type of data set: physicochemical.
The next data set relates to mice. The settings on record: cited from earlier work.
For a further data set, the system named is humans. The note with it: cited from earlier work.
Data set [5] is described as follows: Toxicity, general statements of the description.
In data set [6] the test system is mice of strain BDF1. The note with it: footnote *: P. W. Sheldon, et al, Br. J. Cancer, 35, 795, 800 (1977); 1440 min; cited from earlier work.
[7] abbreviates: read-out: In-vitro Cytotoxicity in cells: inhibition.

In the case of `O=c1[nH]c(=O)n([C@H]2C[C@H](O)[C@@H](CO)O2)cc1F` [FUdR, 5-Fluorodeoxyuridine], the “selectivity (tumor cells versus normal tissue cells)” value in the data set with hypoxic tumor cells is “failed precisely because of their poor selectivity problem”.

As to `O=[N+]([O-])c1nccn1CC[N+]1([O-])CCCCC1` [C, 1-(1'-oxido)piperidinoethyl-2-nitroimidazole], in data set [1], the “Radiosensitization (enhancement ratio at 1mM in chinese hamster cells)” value came out at 2.2. Besides, the MNTC at 2 h in [2] was no less than 20 mM. In data set [3] (up to 4 hours), the “Differential cytotoxicity of hypoxic cells” value (“Differential cytotoxicity” for short) was “None”. The 50% lethal dose (LD50) (in general, the dose expected to kill half of the subjects tested) at 24 h in the data set “in vivo” was greater than 5000 mg/kg. Also, in the data set on mice of strain BDF1 [4], the “Convulsions in mice at LD50 doses” value is recorded as “None”. In the data set “Redox potential”, the “Redox Potential” value was -0.32 V.

Turning to `COCC(O)Cn1ccnc1[N+](=O)[O-]` (stereo not drawn) [F, Misonidazole], the “Differential cytotoxicity” value in data set [3] (exposure time not given) is on record as “yes”. For the same molecule, the “Redox Potential” value in “Redox potential” is recorded as -0.389 V. For the same molecule, in the data set with hypoxic tumor cells, the “radiosensitizing activity (in words)” value was “effective in vivo”. For the same molecule, in the data set on mice (oral, mice), the “serious side effects when administered orally” value is “peripheral neuropathy and convulsions in mice”. The “central nervous system (CNS) toxicity” value in the data set with humans (use in humans) is listed as “limiting factor for their use in humans”.

For the molecule `C[N+]1(CCn2ccnc2[N+](=O)[O-])CCCCC1` [E, 1-(1'-methiodide)-piperidinoethyl-2-nitroimidazole], in data set [2] (at 2mM, read-out: In-vitro Cytotoxicity in cells: inhibition), the cytotoxicity at 2 h, 2000 µM amounted to 30%. In the data set “in vivo”, this molecule had an LD50 at 24 h of 250 mg/kg. Also, the “Convulsions in mice at LD50 doses” value in the data set on mice of strain BDF1 [4] is listed as “yes”. Besides, in data set [5], the “toxicity (in words)” value is listed as “more toxic than the parent non-quaternized piperidino compound itself”.

Consider `O=[N+]([O-])c1nccn1CCN1CCCCC1` [D, 1-piperidinoethyl-2-nitroimidazole], for which the “Radiosensitization (enhancement ratio at 1mM in chinese hamster cells)” value in [1] is reported as roughly 2.1. The cytotoxicity at 2 h, 1000 µM in data set [2] (setting [7]) amounted to 70%. For the same molecule, the 50% lethal dose (LD50) at 24 h in the data set “in vivo” worked out at 800 mg/kg. The “Convulsions in mice at LD50 doses” value with mice of strain BDF1 [4] is “yes”.

`Cc1ncc([N+](=O)[O-])n1CCO` [G, Metronidazole]: the “Radiosensitization (enhancement ratio at 1mM in chinese hamster cells)” value in data set [1] was found to be 1.5. In addition, the “Differential cytotoxicity” value in data set [3] (exposure time not given) is on record as “yes”. The “Redox Potential” value in the data set “Redox potential” is recorded as -0.486 V. Further, in the data set on mice of strain BDF1 [6], the LD50 in mice is 3500 mg/kg. The “radiosensitizing activity (in words)” value is “active both in vivo and in vitro” with hypoxic tumor cells (as worded, listed as Metronidazole); “effective in vivo” with hypoxic tumor cells (as worded, listed as metronidazole). Moreover, the “serious side effects when administered orally” value in the data set on mice (mouse, in vivo, po) is “peripheral neuropathy and convulsions in mice”. For the same molecule, the “central nervous system (CNS) toxicity” value in the data set with humans (in vivo) is “limiting factor for their use in humans”.

Turning to `CN(C)CCC(=O)c1ccc([N+](=O)[O-])cc1.Cl` [NDPP, p-nitro-3-dimethylamino propiophenone HCl], the “radiosensitizing activity (in words)” value in the data set with hypoxic tumor cells is reported as “appeared promising in vitro”.

As for `O=[N+]([O-])c1nc2ccccc2n1CCN1CCCCC1` [B, 1-piperidinoethyl-2-nitrobenzimidazole], the cytotoxicity at 2 h, 1000 µM in [2] (setting [7]) was determined as 50%. Also, in the data set with mice of strain BDF1 [4], the “Convulsions in mice at LD50 doses” value is on record as “Yes” and the LD50 in mice is given as less than 1 g.

As to `O=c1[nH]c(=O)n([C@H]2C[C@H](O)[C@@H](CO)O2)cc1Br` [BUdR, 5-Bromodeoxyuridine], the “selectivity (tumor cells versus normal tissue cells)” value with hypoxic tumor cells is “failed precisely because of their poor selectivity problem”.

In the case of `O=[N+]([O-])c1nc2ccccc2n1CC[N+]1([O-])CCCCC1` [A, 1-(1'-oxido)piperidinoethyl-2-nitrobenzimidazole], in data set [2], the MNTC at 2 h is no less than 10 mM. Further, the median lethal dose (LD50) at 24 h in the data set “in vivo” was roughly 5000 mg/kg. Also, the “Convulsions in mice at LD50 doses” value in the data set with mice of strain BDF1 [4] is given as “None”.
